pKd: −log10 of the molar value.
How the values were obtained:
Assay in all cases: KinomeScan competition binding assay
CLK2 = target: T1, CLK2 (Homo sapiens, UniProt P49760); conditions: 10 μM compound
T1 construct: purchased KinomeScan, a division of Ambit Biosciences
Source text: (§1) This similarity led us to test SNX14 for the ability to inhibit 285 kinases, using the services of KinaseProfiler of Millipore Corporation (285 kinases). […] The KINOMEscan assay has been described in detail in Fabian et al., Nat. Biotechnol. 23: 329 (2005) and Karaman et al., Nat. Biotechnol. 26: 127 (2008).
(§2) The KinomeScan assay is based on a competition binding assay that quantitatively measures the ability of a compound to compete with an immobilized, ATP site directed ligand. The assay is performed by combining three components: DNA-tagged kinase; immobilized ligand; and a test compound. The ability of the test compound to compete with the immobilized ligand is measured via quantitative PCR of the DNA tag. […] The CDKs tested by Millipore for inhibition with SNX14 included CDK1, CDK2, CDK3, CDK5, CDK7 and CDK9; none of these were inhibited to less than 49 percent of control (POC) activity. The CDKs tested by KinomeScan for the effect of Compound 1 included CDK2, CDK3, CDK4, CDK5, CDK7, CDK8, CDK9 and CDK19; aside from CDK8 and CDK19, the strongest inhibited CDK was CDK7 (33% POC binding). To determine the inhibition of which kinases correlates with the biological activity of SNX2-class compounds, we tested eight additional compounds of the SNX2 family, which gave different IC50 values in the cellular assays, for the ability to affect 24 kinases that were most susceptible to compound 1, through the services of KinomeScan. […] We have also determined the binding constant (Kd) for SNX14, compound 1, compound 20, compound 26, compound 43 and compound 14 in kinase assays for CDK8 and CDK19 (Table 1).

MAPKAPK5 = target: T2, MAPKAPK5 (Homo sapiens, UniProt Q8IW41); conditions: 10 μM compound
T2 construct: purchased KinomeScan, a division of Ambit Biosciences
T2 sequence (Q8IW41 1-473): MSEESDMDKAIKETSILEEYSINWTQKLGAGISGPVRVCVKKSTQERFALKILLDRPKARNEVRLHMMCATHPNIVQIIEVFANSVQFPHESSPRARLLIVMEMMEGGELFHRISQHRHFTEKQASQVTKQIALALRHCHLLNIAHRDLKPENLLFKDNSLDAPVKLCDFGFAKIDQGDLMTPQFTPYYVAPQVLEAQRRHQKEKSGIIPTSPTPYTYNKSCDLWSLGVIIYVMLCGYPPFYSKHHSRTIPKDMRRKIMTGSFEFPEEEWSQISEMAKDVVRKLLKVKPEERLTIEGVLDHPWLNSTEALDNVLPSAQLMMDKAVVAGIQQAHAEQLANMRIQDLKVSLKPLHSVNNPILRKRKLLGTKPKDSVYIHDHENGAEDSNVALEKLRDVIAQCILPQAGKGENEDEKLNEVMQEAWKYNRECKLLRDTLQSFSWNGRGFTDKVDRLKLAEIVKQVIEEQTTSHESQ
Source text: as §1, §2

YSK4 = target: T3, YSK4 (Homo sapiens, UniProt Q56UN5); conditions: 10 μM compound
T3 construct: purchased KinomeScan, a division of Ambit Biosciences
T3 sequence (Q56UN5 1-1328): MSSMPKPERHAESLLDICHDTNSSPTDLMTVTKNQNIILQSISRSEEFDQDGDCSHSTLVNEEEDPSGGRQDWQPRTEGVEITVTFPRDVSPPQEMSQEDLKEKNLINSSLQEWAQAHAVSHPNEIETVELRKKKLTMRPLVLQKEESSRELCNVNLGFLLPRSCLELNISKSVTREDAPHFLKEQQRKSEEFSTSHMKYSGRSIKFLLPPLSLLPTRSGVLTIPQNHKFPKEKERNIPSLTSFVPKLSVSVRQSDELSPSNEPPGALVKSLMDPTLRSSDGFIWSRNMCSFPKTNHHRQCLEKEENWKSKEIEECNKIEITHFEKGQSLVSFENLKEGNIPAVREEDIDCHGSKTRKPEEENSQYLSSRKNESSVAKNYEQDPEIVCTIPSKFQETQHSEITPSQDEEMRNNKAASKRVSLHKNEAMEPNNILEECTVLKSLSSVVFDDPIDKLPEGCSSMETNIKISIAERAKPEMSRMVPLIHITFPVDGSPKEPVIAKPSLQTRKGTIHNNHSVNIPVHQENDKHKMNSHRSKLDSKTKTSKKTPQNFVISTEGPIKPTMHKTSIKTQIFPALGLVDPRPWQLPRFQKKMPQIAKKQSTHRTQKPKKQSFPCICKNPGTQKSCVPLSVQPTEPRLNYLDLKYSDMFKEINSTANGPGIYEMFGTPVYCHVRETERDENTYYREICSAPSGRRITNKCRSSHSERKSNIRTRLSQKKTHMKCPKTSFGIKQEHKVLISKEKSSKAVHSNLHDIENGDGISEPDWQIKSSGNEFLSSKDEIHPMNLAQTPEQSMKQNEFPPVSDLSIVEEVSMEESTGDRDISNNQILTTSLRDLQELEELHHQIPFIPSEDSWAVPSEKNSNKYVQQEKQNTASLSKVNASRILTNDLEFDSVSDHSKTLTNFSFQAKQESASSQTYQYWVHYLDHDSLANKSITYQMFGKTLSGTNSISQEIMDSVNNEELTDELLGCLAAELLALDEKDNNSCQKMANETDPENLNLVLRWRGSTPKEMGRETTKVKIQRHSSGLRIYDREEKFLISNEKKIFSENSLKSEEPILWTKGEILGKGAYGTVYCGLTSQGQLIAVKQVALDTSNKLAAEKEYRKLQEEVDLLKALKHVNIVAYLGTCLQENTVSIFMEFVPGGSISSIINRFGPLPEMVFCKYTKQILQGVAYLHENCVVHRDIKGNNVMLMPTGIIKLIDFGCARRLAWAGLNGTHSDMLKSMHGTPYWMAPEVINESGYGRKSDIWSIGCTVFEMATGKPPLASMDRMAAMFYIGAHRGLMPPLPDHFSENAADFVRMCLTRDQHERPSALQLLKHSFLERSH
Source text: as §1, §2

CDK19 = target: T4, CDK19 (Homo sapiens, UniProt Q9BWU1); conditions: for inhibition of CDK19: 10 μM; for POC ligand binding, CDK19: 10 μM compound; for pKd: read-out: CDK19 inhibition (Kd)
T4 construct: purchased KinomeScan, a division of Ambit Biosciences
T4 sequence (Q9BWU1 whole entry): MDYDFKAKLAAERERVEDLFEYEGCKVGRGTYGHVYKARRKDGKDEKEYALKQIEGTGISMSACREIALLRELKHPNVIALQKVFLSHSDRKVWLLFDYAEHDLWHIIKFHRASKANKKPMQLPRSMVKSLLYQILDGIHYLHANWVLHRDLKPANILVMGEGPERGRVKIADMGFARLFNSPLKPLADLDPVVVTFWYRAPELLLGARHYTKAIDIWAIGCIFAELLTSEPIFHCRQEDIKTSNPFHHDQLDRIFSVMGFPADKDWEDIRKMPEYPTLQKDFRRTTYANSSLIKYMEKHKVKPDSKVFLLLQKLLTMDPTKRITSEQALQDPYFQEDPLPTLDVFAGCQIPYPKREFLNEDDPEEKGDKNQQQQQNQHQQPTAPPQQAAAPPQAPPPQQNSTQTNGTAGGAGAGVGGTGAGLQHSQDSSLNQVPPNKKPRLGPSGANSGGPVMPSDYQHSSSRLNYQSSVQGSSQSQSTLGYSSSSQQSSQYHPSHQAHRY
Source text: as §1, §2

T1 sequence (P49760 whole entry): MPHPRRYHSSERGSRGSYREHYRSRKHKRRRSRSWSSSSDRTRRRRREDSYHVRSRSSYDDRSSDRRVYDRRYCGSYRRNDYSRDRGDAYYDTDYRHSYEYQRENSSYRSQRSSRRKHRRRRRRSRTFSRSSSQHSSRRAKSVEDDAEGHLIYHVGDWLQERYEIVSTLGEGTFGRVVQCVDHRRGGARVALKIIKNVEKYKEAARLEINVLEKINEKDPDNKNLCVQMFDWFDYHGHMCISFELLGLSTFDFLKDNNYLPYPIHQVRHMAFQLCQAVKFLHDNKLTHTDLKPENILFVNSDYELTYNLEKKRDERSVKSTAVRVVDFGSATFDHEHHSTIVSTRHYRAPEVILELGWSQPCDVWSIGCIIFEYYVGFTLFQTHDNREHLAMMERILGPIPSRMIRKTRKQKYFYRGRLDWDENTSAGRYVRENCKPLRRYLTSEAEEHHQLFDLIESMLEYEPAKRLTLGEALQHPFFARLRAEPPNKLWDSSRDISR

| Structure (SMILES) | POC ligand binding, CLK2 (CLK2) | POC ligand binding, MAPKAPK5 (MAPKAPK5) | POC ligand binding, YSK4 (YSK4) | inhibition of CDK19 (CDK19) | POC ligand binding, CDK19 (CDK19) | pKd (CDK19) | POC ligand binding, CLK2 (CLK2; 10 µM) | POC ligand binding, MAPKAPK5 (MAPKAPK5; 10 µM) | POC ligand binding, YSK4 (YSK4; 10 µM) | POC ligand binding, CDK19 (CDK19; 10 µM) |
| --- | --- | --- | --- | --- | --- | --- | --- | --- | --- | --- |
| N#Cc1ccc2ncnc(NCCc3ccc4ccccc4c3)c2c1 [compound 26] | 58 POC | 100 POC | 44 POC | 94.6% | 5.6 POC | 6.80 | – | – | – | – |
| N#Cc1ccc2ncnc(NCc3ccc4ccccc4c3)c2c1 [compound 43] | – | – | – | – | – | 6.72 | 9.6 POC | 85 POC | 29 POC | 0.25 POC |
| N#Cc1ccc2ncnc(NCCc3ccccc3)c2c1 [compound 1] | 3.8 POC | 15 POC | 5.4 POC | > 99% | 0.05 POC | 6.51 | – | – | – | – |
| CC(C)CNc1ncnc2ccc(C(F)(F)F)cc12 [compound 45] | 8.6 POC | 100 POC | 41 POC | – | 21 POC | – | – | – | – | – |
| COc1ccc2ncnc(NCCc3ccccc3)c2c1 [compound 44] | 34 POC | 94 POC | 39 POC | – | 9.2 POC | – | – | – | – | – |
| N#Cc1ccc2ncnc(NCc3ccc4ccccc4c3)c2c1 [compound 14] | – | – | – | – | – | 5.96 | 24 POC | 100 POC | 21 POC | 0.1 POC |
| N#Cc1ccc2ncnc(NCc3ccc(Cl)cc3)c2c1 [compound 20] | 16 POC | 92 POC | 31 POC | – | 0 POC | 7.00 | – | – | – | – |
| CCCNc1ncnc2ccc(N3CCOCC3)cc12 [compound 46] | 66 POC | 91 POC | 91 POC | – | 100 POC | – | – | – | – | – |
